The source of these data is PubChem BioAssay (NCI).

SMILES strings stand for the structures.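 1) Cells in 96-well plates. 2) Compound, 48 h, 5 concentrations. 3) Linear interpolation between surrounding doses. 4) Unreached endpoint = highest concentration. Here, GI50 denotes the concentration required for 50% inhibition of growth. TGI: concentration producing complete growth inhibition.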

Test systems include OVCAR-4 ovarian; SK-MEL-2 melanoma; NCI-H226 lung; OVCAR-8 ovarian; SNB-19 CNS; UACC-62 melanoma; TK-10 renal; HCT-116 colon; A498 renal; COLO 205 colon.
What all share (test): NCI-60 cell line screen, 48 h

For `COc1cccc(/C=C/C(=O)c2sc(C(N)=S)nc2C)c1O`, the TGI in the experiment with OVCAR-4 ovarian, in the experiment on SK-MEL-2 melanoma, in the experiment on NCI-H226 lung, with OVCAR-8 ovarian, with SNB-19 CNS and in the experiment with UACC-62 melanoma was greater than 100 µM throughout. The TGI in the experiment on TK-10 renal is greater than 100 µM; in the experiment with HCT-116 colon, greater than 92.5 µM; in the experiment with A498 renal, greater than 100 µM; with COLO 205 colon, greater than 100 µM.

As to `NC(=S)N/N=C1\c2ccccc2-c2c(F)c(F)c(F)c(F)c21`, the GI50 in the experiment with OVCAR-4 ovarian is 1.65 µM; in the experiment with SK-MEL-2 melanoma, 5.38 µM; with NCI-H226 lung, 13.1 µM; in the experiment with OVCAR-8 ovarian, 1.84 µM; with SNB-19 CNS, 11.4 µM; with UACC-62 melanoma it was 8.97 µM. In addition, the GI50 with TK-10 renal was 5.7 µM; in the experiment on HCT-116 colon it was 1.67 µM; in the experiment on A498 renal, 16.5 µM; with COLO 205 colon it was 8.01 µM. The TGI is 3.52 µM in the experiment with OVCAR-4 ovarian; 21.7 µM with SK-MEL-2 melanoma; 28.9 µM in the experiment on NCI-H226 lung; 3.68 µM in the experiment with OVCAR-8 ovarian; 29.2 µM in the experiment with SNB-19 CNS; 24.6 µM in the experiment on UACC-62 melanoma. The TGI worked out at 15.9 µM with TK-10 renal, 3.15 µM in the experiment on HCT-116 colon, 55.7 µM with A498 renal and 19.6 µM in the experiment with COLO 205 colon.

In the case of `Cn1c(=O)nc2n(-c3ccc(Cl)cc3)c3cc(Cl)ccc3nc-2c1=O`, the TGI in the experiment on OVCAR-4 ovarian was 2.53 µM; in the experiment with SK-MEL-2 melanoma, 5.63 µM; in the experiment on NCI-H226 lung it was 42.5 µM; with OVCAR-8 ovarian, 6.2 µM; in the experiment on SNB-19 CNS, 27.9 µM; in the experiment on UACC-62 melanoma it was 3.57 µM. Further, the TGI in the experiment with TK-10 renal stood at 37 µM; with HCT-116 colon, 10 µM; in the experiment on A498 renal, 27.6 µM; with COLO 205 colon, 5.14 µM.

In the case of `O=C(COc1cccc(/C=C2\CSc3ccc(Cl)cc3C2=O)c1)c1ccc(Cl)cc1`, the GI50 in the experiment with OVCAR-4 ovarian was 9.25 µM; in the experiment on SK-MEL-2 melanoma, 11.2 µM; in the experiment with NCI-H226 lung, 13.4 µM; with OVCAR-8 ovarian, 5.1 µM; with SNB-19 CNS, 6.57 µM; with UACC-62 melanoma, 9.04 µM. In addition, the GI50 with TK-10 renal was 29 µM; with HCT-116 colon, 1.5 µM; with A498 renal, 44.6 µM; with COLO 205 colon, 5.32 µM. In addition, the TGI in the experiment on OVCAR-4 ovarian was 23.1 µM; in the experiment on SK-MEL-2 melanoma, 24.5 µM; in the experiment on NCI-H226 lung, 44.4 µM; in the experiment with OVCAR-8 ovarian, greater than 100 µM; in the experiment with SNB-19 CNS it was 20.8 µM; in the experiment on UACC-62 melanoma, 22.5 µM. The TGI in the experiment on TK-10 renal was 79.9 µM; in the experiment on HCT-116 colon, 2.83 µM; in the experiment on A498 renal, greater than 100 µM; in the experiment with COLO 205 colon, 20.2 µM.

`O=C(OCCCl)C1OC(n2cc(F)c(=O)[nH]c2=O)CC1O` (stereo not given): the TGI with OVCAR-4 ovarian, with SK-MEL-2 melanoma, in the experiment on NCI-H226 lung, in the experiment with OVCAR-8 ovarian, with SNB-19 CNS and in the experiment with UACC-62 melanoma was greater than 100 µM each time. In addition, the TGI with TK-10 renal, with HCT-116 colon, in the experiment on A498 renal and in the experiment with COLO 205 colon was greater than 100 µM throughout.

With `Oc1c(Cl)cc(Cl)cc1/C=N/Nc1nnc(N/N=C/c2cc(Cl)cc(Cl)c2O)c2ccccc12`, the GI50 in the experiment with OVCAR-4 ovarian is 0.388 µM; in the experiment with SK-MEL-2 melanoma it was 0.77 µM; with NCI-H226 lung, 0.402 µM; in the experiment on OVCAR-8 ovarian, 0.406 µM; with SNB-19 CNS it was 0.505 µM; in the experiment on UACC-62 melanoma, 0.318 µM. Moreover, the GI50 was 0.704 µM in the experiment on TK-10 renal, 0.433 µM with HCT-116 colon, 2.19 µM in the experiment with A498 renal and 0.433 µM in the experiment on COLO 205 colon. The TGI with OVCAR-4 ovarian is greater than 100 µM; with SK-MEL-2 melanoma, greater than 100 µM; in the experiment with NCI-H226 lung, 3.04 µM; in the experiment on OVCAR-8 ovarian it was greater than 100 µM; with SNB-19 CNS it was greater than 100 µM; in the experiment on UACC-62 melanoma, 1.71 µM. In addition, the TGI in the experiment with TK-10 renal, with HCT-116 colon, with A498 renal and in the experiment on COLO 205 colon was greater than 100 µM each time.

`CC(C)(C)c1cc(/C=N/NC(=O)c2ccccc2NC(=O)c2cccs2)c(O)c(C(C)(C)C)c1`: the GI50 in the experiment with OVCAR-4 ovarian is 0.193 µM; in the experiment with SK-MEL-2 melanoma, 20.2 µM; in the experiment on NCI-H226 lung, 3 µM; in the experiment on OVCAR-8 ovarian it was 0.895 µM; in the experiment with SNB-19 CNS, 0.916 µM; in the experiment on UACC-62 melanoma it was 0.39 µM. For the same compound, the GI50 in the experiment on TK-10 renal was 0.994 µM; in the experiment on HCT-116 colon it was 0.713 µM; with A498 renal, 10.4 µM; in the experiment with COLO 205 colon, 0.412 µM. The TGI in the experiment with OVCAR-4 ovarian was 5.97 µM; with SK-MEL-2 melanoma, greater than 100 µM; in the experiment with NCI-H226 lung it was greater than 100 µM; in the experiment on OVCAR-8 ovarian it was 11.2 µM; with SNB-19 CNS, 71.1 µM; in the experiment with UACC-62 melanoma it was 14 µM. For the same compound, the TGI in the experiment with TK-10 renal worked out at 18.1 µM; with HCT-116 colon, 14.4 µM; in the experiment on A498 renal, 42.5 µM; in the experiment with COLO 205 colon, 22.2 µM.

Turning to `Cc1cnc2oc3ccc(O)cc3c2c1-c1ccccc1`, the GI50 was greater than 100 µM in the experiment on OVCAR-4 ovarian; greater than 100 µM in the experiment with SK-MEL-2 melanoma; 9.35 µM in the experiment on NCI-H226 lung; 99 µM in the experiment on OVCAR-8 ovarian; 34.3 µM in the experiment on SNB-19 CNS; 6.02 µM in the experiment on UACC-62 melanoma. The GI50 is 20.3 µM in the experiment on TK-10 renal, greater than 100 µM with HCT-116 colon, 21.5 µM with A498 renal and greater than 100 µM in the experiment with COLO 205 colon. The TGI in the experiment on OVCAR-4 ovarian is greater than 100 µM; with SK-MEL-2 melanoma, greater than 100 µM; in the experiment with NCI-H226 lung, 44.2 µM; in the experiment on OVCAR-8 ovarian it was greater than 100 µM; with SNB-19 CNS, greater than 100 µM; with UACC-62 melanoma, 50.8 µM. The TGI with TK-10 renal is greater than 100 µM; with HCT-116 colon, greater than 100 µM; in the experiment with A498 renal, 70.5 µM; with COLO 205 colon, greater than 100 µM.

For the compound `O=C(/C=C/c1ccccc1O)c1ccc([N+](=O)[O-])cc1`, the TGI amounted to 25.1 µM in the experiment on OVCAR-4 ovarian; 66.8 µM in the experiment with SK-MEL-2 melanoma; 46.1 µM with NCI-H226 lung; 29.1 µM with OVCAR-8 ovarian; 35.8 µM with SNB-19 CNS; 31.2 µM in the experiment on UACC-62 melanoma. The TGI with TK-10 renal came to 77.2 µM; in the experiment with HCT-116 colon, 29 µM; with A498 renal, 40.9 µM; in the experiment on COLO 205 colon, 27.4 µM.

As to `NS(=O)(=O)c1ccc(NC(=O)Cc2nc3ccccc3s2)cc1`, the TGI in the experiment with OVCAR-4 ovarian was 34.9 µM; in the experiment with SK-MEL-2 melanoma, 31.9 µM; in the experiment with NCI-H226 lung it was 33 µM; in the experiment on OVCAR-8 ovarian it was 34.9 µM; in the experiment with SNB-19 CNS, 49.5 µM; in the experiment on UACC-62 melanoma, 29.4 µM. Besides, the TGI was 44.9 µM in the experiment with TK-10 renal, 31 µM in the experiment on HCT-116 colon, 36.8 µM in the experiment with A498 renal and 34 µM in the experiment on COLO 205 colon.
